In EP0348967A2, “Synthetic lung surfactant preparation comprising lipids and polypeptides” (MERRELL PHARMACEUTICALS INC., priority 1988, dated 1990):

Test system: adult rat lung
Assay: adult rat lung model (pressure-volume curve, lung compliance)
Type: in vivo
Conditions: pressure-volume curves (Figs. 1 and 2), three ml of the preparations of Examples 1 and 2 tested
Description: The synthetic surfactant preparations were tested in the adult rat lung model (Ikegami, et al., (1979) Pediatr. Res. 13, 777-780). Reference I and Reference II, consisting of DPPC, alone and dog lung surfactant, respectively, were employed as reference standards. Three ml of the preparations from each of examples 1 and 2 were tested in an adult rat lung model. […] Results are illustrated in Figures 1 and 2.

CCCCCCCCCCCCCCCC(=O)OC[C@H](COP(=O)([O-])OCC[N+](C)(C)C)OC(=O)CCCCCCCCCCCCCCC [Reference I, dipalmitoylphosphatidylcholine]
compliance of the rat lung: no effect
